From the supplement of paper PMC13207355
Where a name gives a salt, the structure may show the parent alone.

Tests used:
Conditions in all cases: exposure time: 72 h
[1] = tested on: FT3469 (normal neural stem cell line); assay: phenotypic distance (Euclidean, principal components) from DMSO controls (arbitrary units); higher = stronger morphological change
[2] = tested on: E21 (patient-derived glioblastoma stem cells of mesenchymal subtype); assay: as above
[3] = tested on: E34 (patient-derived glioblastoma stem cells of proneural subtype); assay: as above
[4] = tested on: E28 (patient-derived glioblastoma stem cells of classical subtype); assay: as above
[5] = tested on: E13 (patient-derived glioblastoma stem cells of classical subtype); assay: as above
[6] = tested on: E31 (patient-derived glioblastoma stem cells of proneural subtype); assay: as above
[7] = tested on: E57 (patient-derived glioblastoma stem cells of mesenchymal subtype); assay: as above
[8] = tested on: FT3469; assay: surviving fraction (nuclei count normalised to DMSO); higher = more cells surviving (less toxic)
[9] = tested on: E21; assay: as above
[10] = tested on: E34; assay: as above
[11] = tested on: E28; assay: as above
[12] = tested on: E13; assay: as above
[13] = tested on: E31; assay: as above
[14] = tested on: E57; assay: as above
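For phenotypic distance (Euclidean, principal components) from DMSO controls in this document: cell Painting imaging in 384-well plates, CellProfiler features reduced to at least 20 principal components, Euclidean distance versus same-plate DMSO vehicle wells (0.1% v/v), median over six images per well.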
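For surviving fraction (nuclei count normalised to DMSO) in this document: nuclei counted by high-content imaging of Hoechst-stained cells in laminin-coated 384-well plates, relative to 0.1% DMSO vehicle wells, with staurosporine as cell-death control.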

O=C(Nc1ccc([N+](=O)[O-])cc1Cl)c1cc(Cl)ccc1O [Niclosamide]
Conditions | phenotypic distance | surviving fraction
[1], 4.1 nM | 2.28 | –
[1], 12.3 nM | 3.48 | –
[1], 37 nM | 7.75 | –
[1], 111.1 nM | 7.91 | –
[1], 333.3 nM | 9.29 | –
[1], 1000 nM | 9.03 | –
[1], 3000 nM | 10.3 | –
[2], 4.1 nM | 4.72 | –
[2], 12.3 nM | 6.44 | –
[2], 37 nM | 6.49 | –
[2], 111.1 nM | 11.8 | –
[2], 333.3 nM | 11.9 | –
[2], 1000 nM | 12.4 | –
[2], 3000 nM | 14 | –
[3], 4.1 nM | 1.82 | –
[3], 12.3 nM | 2.56 | –
[3], 37 nM | 5.44 | –
[3], 111.1 nM | 8.06 | –
[3], 333.3 nM | 7.5 | –
[3], 1000 nM | 7.96 | –
[3], 3000 nM | 7.89 | –
[4], 4.1 nM | 1.99 | –
[4], 12.3 nM | 2.43 | –
[4], 37 nM | 6.04 | –
[4], 111.1 nM | 8.95 | –
[4], 333.3 nM | 7.22 | –
[4], 1000 nM | 8.51 | –
[4], 3000 nM | 7.9 | –
[5], 4.1 nM | 4.25 | –
[5], 12.3 nM | 4.77 | –
[5], 37 nM | 6.86 | –
[5], 111.1 nM | 9.47 | –
[5], 333.3 nM | 8.21 | –
[5], 1000 nM | 8.6 | –
[5], 3000 nM | 8.06 | –
[6], 4.1 nM | 3.09 | –
[6], 12.3 nM | 4.78 | –
[6], 37 nM | 5.57 | –
[6], 111.1 nM | 10.1 | –
[6], 333.3 nM | 8.82 | –
[6], 1000 nM | 9.48 | –
[6], 3000 nM | 7.83 | –
[7], 4.1 nM | 4.23 | –
[7], 12.3 nM | 7.26 | –
[7], 37 nM | 6.17 | –
[7], 111.1 nM | 4.83 | –
[7], 333.3 nM | 6.2 | –
[7], 1000 nM | 6.94 | –
[7], 3000 nM | 6.28 | –
[8], 4.1 nM | – | 0.772
[8], 12.3 nM | – | 0.654
[8], 37 nM | – | 0.297
[8], 111.1 nM | – | 0.244
[8], 333.3 nM | – | 0.227
[8], 1000 nM | – | 0.262
[8], 3000 nM | – | 0.28
[9], 4.1 nM | – | 0.602
[9], 12.3 nM | – | 0.363
[9], 37 nM | – | 0.0551
[9], 111.1 nM | – | 0.0103
[9], 333.3 nM | – | 0.0028
[9], 1000 nM | – | 0.00933
[9], 3000 nM | – | 0.00467
[10], 4.1 nM | – | 0.708
[10], 12.3 nM | – | 0.542
[10], 37 nM | – | 0.562
[10], 111.1 nM | – | 0.417
[10], 333.3 nM | – | 0.406
[10], 1000 nM | – | 0.452
[10], 3000 nM | – | 0.331
[11], 4.1 nM | – | 0.616
[11], 12.3 nM | – | 0.446
[11], 37 nM | – | 0.147
[11], 111.1 nM | – | 0.0916
[11], 333.3 nM | – | 0.0952
[11], 1000 nM | – | 0.0557
[11], 3000 nM | – | 0.0898
[12], 4.1 nM | – | 0.397
[12], 12.3 nM | – | 0.192
[12], 37 nM | – | 0.156
[12], 111.1 nM | – | 0.163
[12], 333.3 nM | – | 0.148
[12], 1000 nM | – | 0.132
[12], 3000 nM | – | 0.117
[13], 4.1 nM | – | 0.927
[13], 12.3 nM | – | 0.495
[13], 37 nM | – | 0.132
[13], 111.1 nM | – | 0.072
[13], 333.3 nM | – | 0.0854
[13], 1000 nM | – | 0.0502
[13], 3000 nM | – | 0.0703
[14], 4.1 nM | – | 0.572
[14], 12.3 nM | – | 0.303
[14], 37 nM | – | 0.2
[14], 111.1 nM | – | 0.176
[14], 333.3 nM | – | 0.166
[14], 1000 nM | – | 0.136
[14], 3000 nM | – | 0.149

CC[C@H]1CN2CCc3cc(OC)c(OC)cc3[C@@H]2C[C@@H]1C[C@H]1NCCc2cc(OC)c(OC)cc21 [Emetine dihydrochloride hydrate]
Conditions | phenotypic distance | surviving fraction
[1], 4.1 nM | 0.688 | –
[1], 12.3 nM | 0.903 | –
[1], 37 nM | 0.792 | –
[1], 111.1 nM | 3.79 | –
[1], 333.3 nM | 3.87 | –
[1], 1000 nM | 3.19 | –
[1], 3000 nM | 3.42 | –
[2], 4.1 nM | 1.08 | –
[2], 12.3 nM | 0.979 | –
[2], 37 nM | 0.851 | –
[2], 111.1 nM | 6.33 | –
[2], 333.3 nM | 4.77 | –
[2], 1000 nM | 3.91 | –
[2], 3000 nM | 3.66 | –
[3], 4.1 nM | 0.73 | –
[3], 12.3 nM | 0.706 | –
[3], 37 nM | 0.904 | –
[3], 111.1 nM | 2.93 | –
[3], 333.3 nM | 3.91 | –
[3], 1000 nM | 4.94 | –
[3], 3000 nM | 4.59 | –
[4], 4.1 nM | 0.561 | –
[4], 12.3 nM | 0.727 | –
[4], 37 nM | 1.13 | –
[4], 111.1 nM | 2.77 | –
[4], 333.3 nM | 3.25 | –
[4], 1000 nM | 3.1 | –
[4], 3000 nM | 3.67 | –
[5], 4.1 nM | 1.31 | –
[5], 12.3 nM | 0.882 | –
[5], 37 nM | 1.91 | –
[5], 111.1 nM | 4.48 | –
[5], 333.3 nM | 4.34 | –
[5], 1000 nM | 5.43 | –
[5], 3000 nM | 6.58 | –
[6], 4.1 nM | 1.22 | –
[6], 12.3 nM | 1.2 | –
[6], 37 nM | 2.2 | –
[6], 111.1 nM | 5.26 | –
[6], 333.3 nM | 5.72 | –
[6], 1000 nM | 4.54 | –
[6], 3000 nM | 5.99 | –
[7], 4.1 nM | 1.02 | –
[7], 12.3 nM | 1.01 | –
[7], 37 nM | 0.848 | –
[7], 111.1 nM | 5.15 | –
[7], 333.3 nM | 6.55 | –
[7], 1000 nM | 6.5 | –
[7], 3000 nM | 6.32 | –
[8], 4.1 nM | – | 1.12
[8], 12.3 nM | – | 1.05
[8], 37 nM | – | 0.997
[8], 111.1 nM | – | 0.676
[8], 333.3 nM | – | 0.511
[8], 1000 nM | – | 0.492
[8], 3000 nM | – | 0.535
[9], 4.1 nM | – | 0.907
[9], 12.3 nM | – | 0.921
[9], 37 nM | – | 0.816
[9], 111.1 nM | – | 0.347
[9], 333.3 nM | – | 0.223
[9], 1000 nM | – | 0.153
[9], 3000 nM | – | 0.173
[10], 4.1 nM | – | 0.908
[10], 12.3 nM | – | 0.885
[10], 37 nM | – | 0.818
[10], 111.1 nM | – | 0.497
[10], 333.3 nM | – | 0.404
[10], 1000 nM | – | 0.387
[10], 3000 nM | – | 0.426
[11], 4.1 nM | – | 0.969
[11], 12.3 nM | – | 1.05
[11], 37 nM | – | 0.901
[11], 111.1 nM | – | 0.385
[11], 333.3 nM | – | 0.258
[11], 1000 nM | – | 0.315
[11], 3000 nM | – | 0.3
[12], 4.1 nM | – | 0.771
[12], 12.3 nM | – | 0.923
[12], 37 nM | – | 0.769
[12], 111.1 nM | – | 0.481
[12], 333.3 nM | – | 0.319
[12], 1000 nM | – | 0.241
[12], 3000 nM | – | 0.2
[13], 4.1 nM | – | 0.927
[13], 12.3 nM | – | 0.842
[13], 37 nM | – | 0.667
[13], 111.1 nM | – | 0.313
[13], 333.3 nM | – | 0.143
[13], 1000 nM | – | 0.179
[13], 3000 nM | – | 0.101
[14], 4.1 nM | – | 0.975
[14], 12.3 nM | – | 0.918
[14], 37 nM | – | 0.84
[14], 111.1 nM | – | 0.354
[14], 333.3 nM | – | 0.157
[14], 1000 nM | – | 0.173
[14], 3000 nM | – | 0.14
